Measured values reported in PubChem BioAssay (NCI).
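GI50 = concentration required for 50% inhibition of growth. Definition used: TGI = concentration required for complete inhibition of growth.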

Assays:
Test in all cases: NCI tumour cell line growth inhibition, 384-well format
[1] = system: OVCAR-5 ovarian
[2] = system: HOP-62 NSCLC
[3] = system: SK-MEL-28 melanoma
[4] = system: MDA-MB-435 melanoma
[5] = system: IGROV1 ovarian
[6] = system: MOLT-4 leukemia
[7] = system: CAKI-1 renal
[8] = system: BT-549 breast
[9] = system: SW-620 colon
[10] = system: RPMI-8226 leukemia
[11] = system: M14 melanoma
[12] = system: UACC-62 melanoma
[13] = system: SF-268 CNS
[14] = system: SF-539 CNS
[15] = system: LOX IMVI melanoma
[16] = system: NCI-H522 lung
[17] = system: A549 NSCLC
[18] = system: DU-145 prostate
[19] = system: HT29 colon
[20] = system: MDA-MB-231 breast
[21] = system: MALME-3M melanoma
[22] = system: HCT-116 colon
[23] = system: NCI-H23 lung
[24] = system: K-562 leukemia
[25] = system: HCT-15 colon

COc1cnccc1Nc1nc(-c2nn(Cc3c(F)cc(OCCO)cc3F)c3ccccc23)ncc1OC
TGI [1]: 7170 nM | GI50 [2]: 783 nM | TGI [2]: 2060 nM | GI50 [3]: 1720 nM | TGI [3]: 3120 nM | GI50 [4]: 1730 nM | TGI [4]: 3360 nM | GI50 [5]: 1940 nM | TGI [5]: 4470 nM | GI50 [6]: 126 nM | TGI [6]: 548 nM | GI50 [7]: 1900 nM | TGI [7]: 8300 nM | GI50 [8]: 1440 nM | TGI [8]: 2800 nM | GI50 [9]: 1470 nM | TGI [9]: 2840 nM | GI50 [10]: 841 nM | TGI [10]: 2090 nM | GI50 [11]: 1400 nM | TGI [11]: 2860 nM | GI50 [12]: 1500 nM | TGI [12]: 2860 nM | GI50 [13]: 845 nM | TGI [13]: 2720 nM | GI50 [14]: 1450 nM | TGI [14]: 2760 nM | GI50 [15]: 1250 nM | TGI [15]: 2720 nM | GI50 [16]: 768 nM | TGI [16]: 2030 nM | GI50 [17]: 1540 nM | TGI [17]: 2920 nM | GI50 [18]: 1730 nM | TGI [18]: 3440 nM | GI50 [19]: 1850 nM | TGI [19]: 5480 nM | GI50 [20]: 1410 nM | TGI [20]: 3220 nM | GI50 [21]: 1770 nM | TGI [21]: 3200 nM | GI50 [22]: 1620 nM | TGI [22]: 3600 nM | GI50 [23]: 1630 nM | TGI [23]: 3150 nM | GI50 [24]: 1210 nM | TGI [24]: 2560 nM | GI50 [25]: 1200 nM | TGI [25]: 2510 nM
